Results published in patent publication US4599325A, “Substituted tyrosyl alanine dipeptide amides” (G. D. Searle & Co., priority 1985, dated 1986).
Where a name gives a salt, the structure may show the parent alone. Read-outs that look alike come from different tables or passages of the source.

Legend:
mice [1] = experiment: Hot plate test (intravenous administration); assay type: in vivo, mouse; settings: 10 mg/kg i.v.
Method: Male albino inbred mice supplied by Charles River [CD-1 (ICR)BR] weighing between 20 and 30 grams were used. The mice were placed on a 55° C. hot plate 60, 40, and 20 minutes prior to drug administration and the latencies to the lick of a paw or to a jump were recorded. Mice not responding within 15 seconds were discarded from the study. The test compound or vehicle was then administered intravenously and the animals' response latencies on the hot plate were recorded again 10, 30 and 60 minutes later. The initial test dose was 10 mg/kg. Mice not responding within 30 seconds were removed from the hot plate to prevent tissue damage and assigned the cut-off value of 30 seconds. Elevation of the response latencies to greater than twice the median of the three pre-drug latency measurements was indicative of analgesia. For each time point, the data were expressed as the number of animals having analgesic response latencies out of the total number tested. The number of analgesic animals in the test compound-treated group was then compared with the number of analgesic animals in the vehicle-treated group at each time point using Fisher's Exact Probability Test. S. Siegel, Nonparametric Statistics for the Behavioral Sciences. McGraw-Hill, New York, pp. 96-104 (1956 ). […]

mice [2] = experiment: Writhing assay (phenylbenzoquinone); assay type: in vivo, mouse; settings: for Writhing Mouse Oral (ED50) / Writhing Mouse Subc. (ED50): Table 1; for Writhing Mouse Subc. (ED50): subcutaneous; for ED50: Mus musculus
Method: Male Charles River albino mice (CD-1/HAM/1LR) weighing between 20 and 30 grams were used. Thirty minutes after subcutaneous or intragastric administration of the test compound (0.1 ml/10 gram body weight), 0.025% (w/v) phenylbenzoquinone was injected intraperitoneally (0.1 ml/10 gram body weight). Five minutes later, each mouse was placed in a large glass beaker and the number of writhes that occurred in the subsequent ten minutes is counted. A writhe consisted of dorsoflexion of the back, extension of the hindlimbs, and strong contraction of the abdominal musculature. The test compound was considered to have produced analgesia in a mouse if the number of writhes elicited by phenylbenzoquinone was equal to or less than one-half the median number of writhes recorded for the saline-treated group that day. The results were expressed as the number of mice (out of a possible ten) in which the test compound produced analgesia. The test compound was rated active if writhing was inhibited (as described) in 5 of 10 mice.
The receptor binding and biological properties of the following compounds of this invention are illustrated in Tables 1 and 2 utilizing the previously described opiate binding, hot plate, tail flick, writhing assay, cholera test or hypertensive test. The standard screening dose for the hot plate test of Table 1 was 10 mg/kg i.v. and for the writhing assay was 10 mg/kg s.c. and p.o.

[3] = system: spontaneous hypertensive rats (SHR); experiment: Hypertensive test in spontaneous hypertensive rats (SHR); assay type: in vivo, rat; set-up: key to Antihypertensive Properties, Result: Active: Any compound that resulted in a decrease in arterial blood pressure of 20 mm Hg or greater was considered active; settings: for Antihypertensive Properties, Result: Table 3, 10 mg/kg intravenously, one unanesthetized male SHR
Method: A compound's ability to act as an antihypertensive agent was determined using spontaneous hypertensive rats (SHR). Male SHR were maintained in-house for 1 or more weeks before use and were between 11 and 16 weeks old. The test compound was administered intravenously and the initial mean arterial blood pressure was measured directly via an arterial catheter implanted immediately before administration of the compound. Blood pressure readings were made 5, 10 and 15 minutes after administration of the compound. […] Statistical comparisons were made using the unpaired student's test.
The following compounds of the invention were evaluated for their antihypertensive properties using the spontaneous hypertensive rat (SHR). […] The SHR test was essentially that described earlier. Each compound listed in Table 3, was administered intravenously to one unanesthetized, male, spontaneously hypertensive rat; the dosage was 10 mg/kg.

delta opiate receptor = molecular target: T1, delta opiate receptor (Rattus norvegicus, UniProt P33533); experiment: Delta opiate receptor binding (3H-(D)-Ala2-(D)-Leu5 enkephalin); settings: Table 2; 3H-(D)-Ala2-(D)-Leu5 enkephalin 0.2 nM, rat brain
T1 construct: The receptor membrane homogenate was prepared using rat brain; from tissue; host or cells: rat brain membrane homogenate
T1 sequence (P33533 whole entry): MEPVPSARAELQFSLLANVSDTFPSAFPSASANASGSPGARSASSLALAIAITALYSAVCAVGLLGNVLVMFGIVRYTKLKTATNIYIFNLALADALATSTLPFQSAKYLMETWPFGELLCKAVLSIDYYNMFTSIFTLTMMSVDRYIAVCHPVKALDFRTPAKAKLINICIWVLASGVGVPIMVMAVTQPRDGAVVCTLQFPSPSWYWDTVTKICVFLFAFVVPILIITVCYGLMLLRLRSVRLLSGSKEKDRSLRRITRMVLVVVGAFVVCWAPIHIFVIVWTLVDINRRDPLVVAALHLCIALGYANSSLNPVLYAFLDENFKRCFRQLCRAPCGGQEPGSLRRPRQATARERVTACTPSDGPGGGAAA
Method: Several subtypes of opiate receptors have been identified. These multiple receptors are thought to mediate the different effects of opiates, e.g., mu receptors are believed to mediate the analgesic activity of opiates. Therefore, the relative affinities of the test compounds for the mu and the delta opiate receptors was determined. The receptor membrane homogenate was prepared using rat brain as previously described in this document. The binding assays for the mu and delta receptors were performed using a modification of the method described by Chang and Cuatrecasas. K.-J. Chang and P. Cuatrecasas. Multiple Opiate receptors: enkephalins and morphine bind to receptors of different specificity, J. Biol. Chem. 254, 2610-2618 (1979). The incubation mixtures contained 0.75 ml of homogenate (1 mg protein/ml) and 0.05 ml of ^3 H-Dihydromorphine (final concentration of 0.2 nM) or 0.05 ml ^3 H-(D)-Ala^2 -(D)-Leu^5 enkephalin (final concentration of 0.2 nM). Both the displacer, naloxone, and the test compounds were added in 0.1 ml volumes. Finally, […] tris-HCl buffer (pH 7.4 at 25° C.) was added to bring the total volume up to 1 ml. The mixture were then incubated 60 minutes at 25° C. before filtering.
The IC50 values, i.e., the concentration of the test compound that inhibited ligand specific binding to its receptor by 50%, were calculated using log-probit analysis, D. J. Finney. […]

Compound	Hot Plate (I.V.) 10 mg/kg: rating and animals with analgesic latencies / tested (mice [1])	Writhing Mouse Oral (ED50) (mice [2]) [mg/kg]	Writhing Mouse Subc. (ED50) (mice [2]) [mg/kg]	Writhing (ED50) s.c. (mice [2]; Table 2, s.c.) [mg/kg]	SHR Blood Pressure, activity at stated dose ([3]; Table 2, 10 mg/kg i.v.)	Antihypertensive Properties, Result [3]	IC50 (delta opiate receptor) [nM]	ED50 (mice [2]; po, Table 2, p.o., read-out: Writhing (ED50) p.o.) [mg/kg]	ED50 (mice [2]; sc, Table 2, s.c., read-out: Writhing (ED50) s.c.) [mg/kg]	Writhing Mouse Oral (ED50) (mice [2]; hydrochloride) [mg/kg]	Writhing Mouse Subc. (ED50) (mice [2]; hydrochloride) [mg/kg]	activity in writhing test relative to the prior art, oral (mice [2]; administered orally, more active than prior art) [times]	potency in writhing test relative to the prior art, subcutaneous (mice [2]; subcutaneous administration)	SHR Blood Pressure, dose printed (active at) ([3]; Table 2, i.v.) [mg/kg]
tyrosine-D-alanine-phenylpropylamide [Prior Art, reference compound]	Inactive 0/10	0.58	3.10	0.6	Active	Active	62							
Cc1cc(O)cc(C)c1C[C@H](N)C(=O)N[C@H](C)C(=O)NCCCc1ccccc1 [Example 5, 2,6-dimethyltyrosyl-N-(3-phenylpropyl)-D-alaninamide, hydrochloride]	Active 6/7					Active	1.2	0.5	0.5	0.53	0.52	6	approximately equipotent	1
